Where “and” joins values, the source holds several entries; their conditions need not be identical. Equal entries are not always repeated. Entries after “also recorded” stand apart in the source; their conditions may differ.
What was measured:
[1] = system: MCF-7 K303R ERα-overexpressing cells; assay: Anchorage-independent soft agar growth assay; format: cell-based, human; details: for reduction in colonies: Tam 100 nM
MCF-7 Arom 1 cells [2] = assay: Anchorage-independent soft agar growth assay; format: cell-based, human; details: for colony growth: ICI 182,780 1 μM
[3] = system: K303R Arom 1 and Arom 2 cells; assay: Anchorage-independent soft agar growth assay; format: cell-based, human; details: for AD-induced colony formation: AD 10 nmol/L + Ana 1 μmol/L, 14 days; for colony growth: ICI 182,780 1 μM
[4] = system: pAkt in K303R Arom 1 and 2 cells; assay: Immunoblot of phosphorylated Akt; format: cell-based, human; details: for basal Akt phosphorylation: LY 10 μmol/L, PI-103 1 μmol/L, Akti1/2 1 μmol/L, 30 min
aromatase = molecular target: T1, aromatase (Homo sapiens, UniProt P11511); assay: Aromatase activity assay (3H-water release); format: biochemical; details: both cells (MCF-7 and MCF-7-K303R aromatase transfectants)
T1 construct: Full-length human aromatase cDNA was amplified from the pCMV6-Arom plasmid; expressed in transfected cells; host or cells: MCF-7 parental and YFP-K303R ERα MCF-7 clones, stably transfected with pZeo-Arom
T1 sequence (P11511 1-503): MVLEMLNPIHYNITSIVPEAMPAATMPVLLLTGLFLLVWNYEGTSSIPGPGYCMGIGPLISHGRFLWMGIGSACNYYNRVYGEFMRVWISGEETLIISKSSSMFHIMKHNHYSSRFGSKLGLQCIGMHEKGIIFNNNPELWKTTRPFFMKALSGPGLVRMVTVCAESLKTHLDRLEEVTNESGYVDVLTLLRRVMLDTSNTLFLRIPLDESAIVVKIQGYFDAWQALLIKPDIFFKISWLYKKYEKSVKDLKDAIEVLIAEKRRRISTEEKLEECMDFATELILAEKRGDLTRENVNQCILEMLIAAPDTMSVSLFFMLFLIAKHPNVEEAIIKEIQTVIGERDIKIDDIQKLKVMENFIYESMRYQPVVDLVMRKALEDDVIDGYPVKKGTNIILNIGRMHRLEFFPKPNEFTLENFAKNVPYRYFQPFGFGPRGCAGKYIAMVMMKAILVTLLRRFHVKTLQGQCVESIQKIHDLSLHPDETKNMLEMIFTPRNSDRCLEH

MCF-7 Arom 1 cells [5] = assay: ELISA cell death detection assay; format: cell-based, human
K303R Arom 1 cells [6] = assay: ELISA cell death detection assay; format: cell-based, human
[7] = system: K303R ERα-Arom pools (MCF-7); assay: Soft agar assay in stable pools; format: cell-based, human; details: AD 10 nmol/L + Ana 1 μmol/L
[8] = system: PARP cleavage in MCF-7 Arom 1 cells; assay: Immunoblot of PARP proteolysis; format: cell-based, human; details: AD 10 nmol/L + Ana 1 μmol/L, 24 h
[9] = system: PARP cleavage in K303R Arom 1 cells; assay: Immunoblot of PARP proteolysis; format: cell-based, human; details: AD 10 nmol/L + Ana 1 μmol/L, 24 h
MCF-7 Arom 1 cells [10] = assay: MTT growth assay; format: cell-based, human; details: AD 10 nM + Ana, 9 days, WT ERα cells
K303R Arom 1 cells [11] = assay: MTT growth assay; format: cell-based, human; details: AD 10 nM + Ana, 9 days, K303R mutant cells
[12] = system: pAkt in MCF-7 Arom 1 cells; assay: Immunoblot of phosphorylated Akt; format: cell-based, human
CHO K303R P cells = assay: Soft agar assay in stable pools; format: cell-based, Chinese hamster; details: AD 10 nmol/L + Ana 1 μmol/L
[13] = system: K303R ERα ERE-luciferase reporter; assay: ERα transactivation assay (ERE-luciferase) in CHO cells; format: cell-based, Chinese hamster; details: LY 10 μmol/L or ICI 1 μmol/L
MCF-7 WT cells = assay: Anchorage-independent soft agar growth assay; format: cell-based, human; details: Tam 100 nM, 14 days
[14] = system: MCF-7 K303R ERα-expressing cells; assay: MTT growth assay with growth factors; format: cell-based, human
[15] = system: MCF-7 WT ERα-expressing cells; assay: MTT growth assay with growth factors; format: cell-based, human; details: Tam alone
[16] = system: AP-1 activity in MCF-7 K303R cells; assay: AP-1 luciferase reporter assay; format: cell-based, human
[17] = system: phosphorylated HER2, Akt, MAPK in MCF-7 WT cells; assay: Immunoblot after S305 blocking peptide delivery and heregulin; format: cell-based, human; details: peptide 4 μg/well 4 h, heregulin 10 min
[18] = system: phosphorylated S305 ERα, HER2, Akt, MAPK in MCF-7 K303R cells; assay: as above; format: cell-based, human; details: peptide 4 μg/well 4 h, heregulin 10 min
[19] = AD 10 nmol/L + Ana 1 μmol/L versus AD

## 17β-Estradiol [E2]
[1]; E2 10^−12, 14 days, p=0.005
  soft agar growth at lowest E2 concentration: significantly enhance

## O=c1[nH]c2ccccc2n1C1CCN(Cc2ccc(-c3nc4cc5nc[nH]c5cc4nc3-c3ccccc3)cc2)CC1 [Akti1/2, Akt inhibitor VIII isozyme-selective]
MCF-7 Arom 1 cells [2]; Akti1/2 1 μmol/L
  inhibition of basal, AD-stimulated and Ana-stimulated growth: ~30%
[3]; Akti1/2 1 μmol/L
  inhibition of growth: > 90%
[4]
  basal Akt phosphorylation: effectively blocked

## CC(C)(C#N)c1cc(Cn2cncn2)cc(C(C)(C)C#N)c1 [Ana, anastrozole]
aromatase
  reduction of aromatase activity: 95%
MCF-7 Arom 1 cells [2]; AD 10 nmol/L + Ana 1 μmol/L, 14 days
  AD-stimulated colony growth: completely abrogated
[3]
  AD-induced colony formation: did not inhibit; also recorded: unable to inhibit
[3]; listed as AN
  AD-induced colony formation: unable to inhibit
MCF-7 Arom 1 cells [5]; [19]
  cell apoptosis: significant increase
K303R Arom 1 cells [6]; [19]
  apoptotic response: no change
[7]
  AD-stimulated growth: unable to reduce; also recorded: further stimulated
[8]
  PARP proteolysis compared with AD treatment: increased proteolysis
[9]
  PARP cleavage: unchanged
MCF-7 Arom 1 cells [10]
  decrease of AD-stimulated growth: 47% and ~40%
MCF-7 Arom 1 cells [10]; listed as AN
  decrease of AD-stimulated growth: 40%
K303R Arom 1 cells [11]
  effect on AD-stimulated growth: had no effect
[4]; AD 10 nM + Ana 1 μM, 1 h
  constitutive pAkt levels: not affected; also recorded: unaffected
[12]; AD 10 nM + Ana 1 μM, 1 h
  AD-induced pAkt levels: reduced
CHO K303R P cells
  AD-stimulated growth: did not reverse

## C[C@]12CC[C@@H]3c4ccc(O)cc4C[C@@H](CCCCCCCCC[S+]([O-])CCCC(F)(F)C(F)(F)F)[C@H]3[C@@H]1CC[C@@H]2O (stereo partly shown) [ICI 182,780, fulvestrant]
MCF-7 Arom 1 cells [2]
  colony growth: significantly suppressed
MCF-7 Arom 1 cells [2]; listed as ICI182,780
  colony growth: suppressed
[3]
  colony growth: significantly suppressed
[3]; listed as ICI182,780
  colony growth: suppressed
[13]
  ERE activity: inhibited
[4]; ICI 1 μmol/L, 1-30 min
  pAkt with short-term treatment: no changes
[4]; ICI 1-48 h
  pAkt levels: decrease
[12]; ICI182,780 1-48 h
  basal pAkt: not basal pAkt

## O=c1cc(N2CCOCC2)oc2c(-c3ccccc3)cccc12 [LY294002]
MCF-7 Arom 1 cells [5]; LY 10 μmol/L, 72 h
  apoptosis induction: 1.7 fold
K303R Arom 1 cells [6]; LY 10 μmol/L, 72 h
  increase in the apoptotic rate compared with AD: 3.6 fold

## COc1cccc(-c2cc(=O)c3ccccc3o2)c1N [PD98059]
[3]; PD98059 10 μM
  antiproliferative effects on basal growth: not observed
  reversal of the AI^R phenotype: did not reverse
[3]; PD98059 10 μM, listed as PD
  reversal of the AI^R phenotype: unable to reverse

## Oc1cccc(-c2nc(N3CCOCC3)c3oc4ncccc4c3n2)c1 [PI-103]
[4]
  basal Akt phosphorylation: effectively blocked

## CC/C(=C(\c1ccccc1)c1ccc(OCCN(C)C)cc1)c1ccccc1 [Tam, tamoxifen]
[1]; Tam, 14 days
  heregulin-induced anchorage-independent growth: unable to block; also recorded: failed to inhibit
[1]; estrogen (E2 1 nM)-stimulated, 14 days
  reduction in colonies: 54%
[1]; heregulin (2 ng/ml)-stimulated, 14 days
  reduction in colonies: 21%
MCF-7 WT cells; estrogen (E2 1 nM)-stimulated
  reduction in colonies: 78%
MCF-7 WT cells; heregulin (2 ng/ml)-stimulated
  reduction in colonies: 96%
[14]; Tam alone, MTT
  growth: enhanced
[14]; Tam with heregulin, EGF or IGF-1, MTT
  growth when stimulated with growth factors: super-agonist
[15]
  control growth: inhibited
[16]; presence of Tam
  growth factor-induced AP-1 activity: unable to reverse

## IKRSKKNSLALSC (blocking sequence) [S305 blocking peptide]
[17]
  heregulin-induced phosphorylation of downstream signaling molecules (HER2, Akt, MAPK): abrogated; also recorded: inhibited
[18]
  phosphorylation of the mutant receptor at S305: abrogated
[18]; more pronounced than in WT
  heregulin-induced phosphorylation of downstream signaling molecules (HER2, Akt, MAPK): abrogated; also recorded: inhibited

## heregulin
[16]; only in mutant-expressing cells
  AP-1 activity: induced high AP-1 activity

— patent publication US20100120039A1, “METHODS AND COMPOSITIONS IN BREAST CANCER THERAPY RESISTANCE” (priority 2008, published 2010)
